Tests used:
B1 bradykinin receptor [1] = molecular target: T1, B1 bradykinin receptor (Oryctolagus cuniculus, UniProt P48748); test: Antagonist activity at rabbit B1 bradykinin receptor expressed in CHO cells; type: functional, cell-based
T1 sequence (P48748 whole entry): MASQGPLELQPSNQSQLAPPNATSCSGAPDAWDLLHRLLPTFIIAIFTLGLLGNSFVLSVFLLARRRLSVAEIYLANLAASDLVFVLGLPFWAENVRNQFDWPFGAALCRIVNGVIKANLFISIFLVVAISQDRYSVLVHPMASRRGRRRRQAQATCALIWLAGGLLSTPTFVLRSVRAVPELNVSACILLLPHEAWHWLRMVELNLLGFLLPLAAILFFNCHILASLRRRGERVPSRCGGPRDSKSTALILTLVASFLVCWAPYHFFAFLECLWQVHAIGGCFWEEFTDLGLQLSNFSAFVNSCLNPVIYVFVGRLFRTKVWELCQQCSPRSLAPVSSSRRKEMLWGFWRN

B1 bradykinin receptor [2] = molecular target: T2, B1 bradykinin receptor (Homo sapiens, UniProt P46663); test: Antagonist activity at human B1 bradykinin receptor expressed in CHO cells by aqueorin-based calcium flux assay; type: functional, cell-based
T2 sequence (P46663 whole entry): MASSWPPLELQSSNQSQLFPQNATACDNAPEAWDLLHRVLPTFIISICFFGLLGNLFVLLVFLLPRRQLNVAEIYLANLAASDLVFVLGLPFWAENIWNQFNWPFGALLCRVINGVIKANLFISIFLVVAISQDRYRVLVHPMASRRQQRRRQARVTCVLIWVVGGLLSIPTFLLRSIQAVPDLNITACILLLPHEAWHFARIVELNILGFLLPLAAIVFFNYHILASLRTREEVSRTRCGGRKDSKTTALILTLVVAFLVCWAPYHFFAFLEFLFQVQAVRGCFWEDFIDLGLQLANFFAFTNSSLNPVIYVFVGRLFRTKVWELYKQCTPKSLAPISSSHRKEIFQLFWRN

B1 bradykinin receptor [3] = molecular target: T2, B1 bradykinin receptor; test: Binding affinity to human B1 bradykinin receptor
[4] = Oral bioavailability in rat at 5 mg/kg; type: ADME, organism-based; settings: in vivo
[5] = Clearance in rat at 2 mg/kg, iv; type: ADME, organism-based; set-up: dose 2 mg/kg, route intravenous; settings: in vivo
[6] = Volume of distribution at steady state in rat at 2 mg/kg, iv; type: ADME, organism-based; set-up: dose 2 mg/kg, route intravenous; settings: in vivo, read-out: Vdss
[7] = Half life in rat at 2 mg/kg, iv; type: ADME, organism-based; set-up: dose 2 mg/kg, route intravenous; settings: in vivo
[8] = Plasma concentration in New Zealand white rabbit carrageenan-induced mechanical hyperalgesia model at 10 mg/kg, sc administered 60 mins before carrageenan challenge measured after 3 hrs; type: ADME, organism-based, Oryctolagus cuniculus; set-up: dose 10 mg/kg, route subcutaneous
Oryctolagus cuniculus = test: Analgesic activity in New Zealand white rabbit mechanical hyperalgesia model assessed as reduction in carrageenan-induced paw withdrawal at 10 mg/kg, sc administered 60 mins before carrageenan challenge measured after 3 hrs; type: functional; set-up: scale not given: the % may be the effect or the level left; settings: route subcutaneous
[9] = Oral bioavailability in rat at 2 mg/kg; type: ADME, organism-based; settings: in vivo

Row | SMILES | IC50 (B1 bradykinin receptor [1]) | IC50 (B1 bradykinin receptor [2]) | Ki (B1 bradykinin receptor [3]) | other results
1 | O=C(N[C@@H]1CCCc2cc(CN3CCCCC3)ccc21)c1cccc(-c2coc3ccccc3c2=O)c1 | 0.476 µM | 0.112 µM | – | –
2 | Cc1nn(-c2cccc(C(=O)N[C@@H]3CCCc4cc(CN5CCCCC5)ccc43)c2)c(=O)c2ccccc12 | > 6.46 µM | 3.4 µM | – | –
3 | Cc1nn(-c2ccc(C(=O)N[C@H]3CCCc4cc(CN5CCCCC5)ccc43)cc2)c(=O)c2ccccc12 | 0.098 µM | 0.007 µM | 0.043 µM | –
4 | O=C(N[C@@H]1CCCc2cc(CN3CCCCC3)ccc21)c1cccc(-c2coc3cccc(Cl)c3c2=O)c1 | 0.248 µM | 0.017 µM | 0.029 µM | –
5 | O=C(N[C@@H]1CCCc2cc(CN3CCCCC3)ccc21)c1cccc(-c2coc3ccc(Cl)cc3c2=O)c1 | > 0.16 µM | 0.279 µM | 0.767 µM | –
6 | O=C(N[C@@H]1CCCc2cc(CN3CCCCC3)ccc21)c1cccc(-c2coc3ccc(F)cc3c2=O)c1 | 0.393 µM | 0.078 µM | 0.398 µM | –
7 | O=C(N[C@@H]1CCCc2cc(CN3CCCCC3)ccc21)c1cccc(-c2coc3cc(Cl)ccc3c2=O)c1 | > 0.8 µM | 0.799 µM | – | –
8 | O=C(N[C@@H]1CCCc2cc(CN3CCCCC3)ccc21)c1cccc(-c2coc3c(Cl)cccc3c2=O)c1 | > 0.8 µM | 0.188 µM | 0.322 µM | –
9 | O=C(N[C@H]1CCCc2cc(CN3CCCCC3)ccc21)c1ccc(-c2coc3ccccc3c2=O)cc1 | 0.122 µM | – | – | –
10 | O=C(N[C@H]1CCCc2cc(CN3CCCCC3)ccc21)c1ccc(-c2coc3cccc(Cl)c3c2=O)cc1 | 0.03 µM | 0.004 µM | 0.004 µM | bioavailability [4]: 43.6%; clearance [5]: 17.7 mL/min/kg; Vd [6]: 6.67 L/kg; half-life [7]: 4.5 h; concentration at 3 h [8]: 379 nM; Activity (Oryctolagus cuniculus): 65%
11 | O=C(N[C@H]1CCCc2cc(CN3CCCCC3)ccc21)c1ccc(-c2coc3ccc(Cl)cc3c2=O)cc1 | > 4 µM | > 4 µM | 1.62 µM | –
12 | O=C(N[C@H]1CCCc2cc(CN3CCCCC3)ccc21)c1ccc(-c2coc3cc(Cl)ccc3c2=O)cc1 | > 0.8 µM | 0.264 µM | 0.042 µM | –
13 | O=C(N[C@H]1CCCc2cc(CN3CCCCC3)ccc21)c1ccc(-c2coc3c(Cl)cccc3c2=O)cc1 | > 4 µM | 0.186 µM | 0.481 µM | –
14 | O=C(N[C@H]1CCCc2cc(CN3CCCCC3)ccc21)c1ccc(-c2coc3cccc(F)c3c2=O)cc1 | 0.024 µM | 0.012 µM | 0.017 µM | clearance [5]: 25.5 mL/min/kg; bioavailability [9]: 27.9%; Vd [6]: 8.83 L/kg; half-life [7]: 3.8 h
15 | Cc1cccc2occ(-c3ccc(C(=O)N[C@H]4CCCc5cc(CN6CCCCC6)ccc54)cc3)c(=O)c12 | 0.139 µM | 0.066 µM | 0.015 µM | –
